Laboratory results from patent US6613317B1, “Volatile attractants for diabrotica species” (priority 1988, dated 2003).
Marks after values point to notes of the source that are not given here.

Columns and labels:
Settings in all cases: 100 mg per trap, n = 4
D. cristata = assay: Sticky trap attraction in prairie habitat, Trelease Woods (Example 2); type: in vivo, Diabrotica cristata
In short: (§1)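 Lure-dosed cotton wicks (solids in acetone; untreated controls) on TangleTrap-coated cartons atop 1 m posts, four replicates 10 m apart in relict prairie, mid-August over two years. Read-out: mean beetles caught after 24-h; log-transformed ANOVA with Duncan's multiple range test.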

D. u. howardi = assay: as above; type: in vivo, Diabrotica undecimpunctata howardi
In short: as §1

D. barberi = assay: Sticky trap attraction along hybrid corn, Pomology South Farms (Example 2); type: in vivo, Diabrotica barberi
Procedure: The candidate lures in all experiments were purchased commercially and exceeded 98% purity. The test chemicals were applied by capillary micropipettes to cotton dental wicks which were attached to the tops of 1.0 liter cylindrical paper cartons covered with TangleTrap™ (Tanglefoot Co., Grand Rapids, Mich.). The sticky trap techniques used were as described in Example 1. Cinnamyl alcohol and para-methoxycinnamaldehyde, which are solids, were dissolved in glass-distilled acetone prior to dosing the cotton wicks. All treatments were applied at a dosage of 100 mg per trap. 1,2,4-trimethoxybenzene, indole, and trans-cinnamaldehyde were mixed in a ratio of 1:1:1, by weight, immediately prior to dosing the cotton wicks. Control traps had untreated cotton wicks. Four replicates of treated and untreated traps were randomly positioned 10 meters apart on top of 1 m high posts along the border of a eight foot wide strip cut through the middle of a 4.05 ha relict prairie at Trelease Woods (ca. two miles northeast of Urbana, Ill.). The field consisted primarily of Andropogon gerardii Vitman (big bluestem) and a variety of composites. The tests were conducted in mid-August of two years and were timed to coincide with the presence of D. cristata and D. barberi adults in the flower heads of Canada thistle (Carduus arvensis Robson). In the second year, several new attractants of D. v. virgifera and D. barberi were tested in Trelease Woods and along the edge of a 0.8 ha field of hybrid corn located at the Pomology South Farms, Urbana, Ill. Attraction of Diabrotica species to the various lures was measured by the mean number of beetles caught after 24-h. On one date in late August of the first year, D. cristata and D. barberi were removed from the traps and sexed in the laboratory. The significance of treatments in all tests was determined by an analysis of variance and the individual means were separated by Duncan's multiple range test (Statistical Package for Social Science, Nie, et al., SPSS: statistical package for the social sciences, 2nd ed. McGraw-Hill, New York (1975). Data were logarithmically transformed for statistical analysis and the means and standard deviations are presented for the untransformed data.

[1] = test system: southern corn rootworm (SCR) adults; assay: Sticky trap attraction in corn, estragole analogues (Example 3); type: in vivo, Diabrotica undecimpunctata howardi
In short: (§2)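 Cotton wicks dosed with 100 mg or 100 μL attractant per trap on TangleTrap-coated cartons, four replicates 10 m apart on 1 m posts at field edges of hybrid or sweet corn. Mean beetles caught after ~24 h; log-transformed ANOVA with Duncan's test, P=0.05.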

[2] = test system: northern corn rootworm (NCR) adults; assay: as above; type: in vivo, Diabrotica barberi
In short: as §2

| SMILES | Mean number of D. cristata per day (±standard deviation) (D. cristata; August 11, 1987) | Mean number of D. cristata per day (±standard deviation) (D. cristata; August 14, 1987) | Mean number of D. cristata per sticky trap per day (±standard deviation) (D. cristata; August 18, first year) | Mean number of D. cristata per sticky trap per day (±standard deviation) (D. cristata; August 20, first year) | Mean number of D. cristata per sticky trap per day (±standard deviation) (D. cristata; August 27, first year) | Mean number of D. u. howardi per day (±standard deviation) (D. u. howardi; August 11, 1987) | Mean number of D. u. howardi per day (±standard deviation) (D. u. howardi; August 14, 1987) | Mean number of D. u. howardi per sticky trap per day (±standard deviation) (D. u. howardi; August 18, first year) | Mean number of D. u. howardi per sticky trap per day (±standard deviation) (D. u. howardi; August 20, first year) | Mean number of D. u. howardi per sticky trap per day (±standard deviation) (D. u. howardi; August 27, first year) | Mean number of D. barberi per stick trap per day (±standard deviation) in corn (D. barberi; August 7) | Mean number of D. barberi per stick trap per day (±standard deviation) in corn (D. barberi; August 18) | Mean number of SCR (±standard deviation) per sticky trap after 24 hours ([1]; August 7 (Table 11)) | Mean number of SCR (±standard deviation) per sticky trap after 24 hours ([1]; August 18 (Table 11)) | Mean number of NCR (±standard deviation) per sticky trap after 24 hours ([2]; August 7 (Table 11)) | Mean number of NCR (±standard deviation) per sticky trap after 24 hours ([2]; August 18 (Table 11)) | Mean number of SCR per sticky trap after 24 hours ([1]; August 5 (Table 10)) | Mean number of NCR per sticky trap after 24 hours ([2]; August 5 (Table 10)) |
| --- | --- | --- | --- | --- | --- | --- | --- | --- | --- | --- | --- | --- | --- | --- | --- | --- | --- | --- |
| C=CCc1ccc(O)c(OC)c1 [XXIV, eugenol] | 39.5 ± 9.4^c per day | 20.0 ± 8.4^cd per day | 11.5 ± 8.6^b per sticky trap per day | 15.5 ± 7.9^c per sticky trap per day | 3.5 ± 3.3^b per sticky trap per day | 0.0^a per day | 0.0^a per day | 0.3 ± 0.5^a per sticky trap per day | 0.8 ± 0.5^a per sticky trap per day | 0.3 ± 0.5^a per sticky trap per day | 5.8 ± 2.2^b per stick trap per day | 16.3 ± 5.7^b per stick trap per day | 6.2 ± 1.0^a per sticky trap | 0.0^a per sticky trap | 5.7 ± 2.2^b per sticky trap | 16.5 ± 5.7^b per sticky trap |  |  |
| OCC=Cc1ccccc1 [XVIII, cinnamyl alcohol] | 28.3 ± 5.3^c per day | 20.5 ± 1.3^d per day |  |  |  | 0.3 ± 0.5^a per day | 2.8 ± 1.7^b per day |  |  |  | 8.5 ± 6.1^b per stick trap per day | 23.3 ± 5.9^c per stick trap per day | 24.5 ± 13.6^b per sticky trap | 1.8 ± 1.3^b per sticky trap | 8.5 ± 6.1^b per sticky trap | 23.2 ± 5.9^c per sticky trap | 14.5 ± 9.6^ab per sticky trap | 8.7 ± 4.6^c per sticky trap |
